The term melting point denotes the temperature, or range, at which the solid turns liquid.

In the case of `CCCCOc1ccc(S(=O)(=O)C2(C(=O)O)CCN(Cc3cccc(OC)c3)CC2)cc1`, the melting point was found to be 175 °C.

The molecule `O=C1CC2OC(CS(=O)c3ccccc3)CN12` (racemic) yielded a melting point of 119 to 120 °C.

`Cn1nc(N)nc1NCCCOc1cccc2c(N3CCOCC3)nccc12` returned a melting point of 178 to 180 °C.

On to `OCc1ccnc(Br)c1`, for which the melting point is 63.3 to 64.4 °C.

In turn, `CC(C(N)=O)c1cccc2c1Oc1ccccc1CC2=O` (stereo unspecified) had a melting point of 177 to 178 °C.

Take `CCC(C)(C)NCCC(C(=O)O)C(=O)c1ccc(Cl)cc1Cl` (stereo unspecified): the melting point fell in the range of 124 to 126 °C.

For the molecule `CC(C)c1cn2ccccc2c1S(=O)(=O)c1ccc(OCCCN2CCC(c3ccccc3)CC2)cc1`, the melting point lay in the range of 79 to 80 °C.

`COc1ccc(-c2[nH]nc3c2C(=O)c2c(NC(=O)CN4CCC(CN)CC4)cccc2-3)cc1`: the melting point is > 300 °C.

As to `COc1ccc(C2OCC(C)(C)C(C(=O)NCCC(=O)O)O2)cc1` (stereo unspecified), the melting point fell in the range of 135 to 136 °C.

As to `Cc1ccc(Oc2cnc(C#N)c(C#N)n2)cc1`, the melting point is 126 to 127 °C.

As to `O=C(NCCC1OCCO1)c1ccc[nH]1`, the melting point was 133 to 135 °C.

`Cn1cc(-c2cc3cccnc3[nH]2)c2cc(C(=O)NCCC(N)=O)ccc21` had a melting point of 286 to 288 °C.

As to `Cc1ccccc1SN(C(=O)NC(=O)c1ccccc1Cl)c1ccc(OC(F)(F)F)cc1`, the melting point lay in the range of 79 to 80 °C.

On to `CCOC(=O)c1c(C(F)(F)F)nc(C(F)F)c(C(=O)OC)c1F`, for which the melting point was in the range of 40 to 41 °C.

With `CC(=O)N(C)CC#CCn1ccnc1`, the melting point was in the range of 113 to 115 °C.

Take `CCC(CC)n1c(=O)sc2c(=O)[nH]c(N)nc21`: the melting point was > 232 °C.

`CC1=C(C(=O)OCCN(C)Cc2ccc(Cl)cc2)C(c2cccc([N+](=O)[O-])c2)C(C(=O)OCC2CC2)=C(C)N1` (stereo unspecified): the melting point is 115 to 116 °C.

`Cc1ccc(C)c(OCc2ccccc2C(=O)c2ccon2)c1` showed a melting point of 90.5 to 92 °C.

The molecule `CSc1cc(C)nc(SC)c1NC(=O)CCCCCSc1nc2ccccc2s1` gave a melting point of 123 to 125 °C.

Take `O=C1CNN(Cc2ccc(Cl)cc2Cl)C(=O)N1`: the melting point amounted to 167 °C.

For the molecule `CCCCCCOc1ccc2c(COC)c(OCCCCCC)ccc2c1COC`, the melting point is 103 to 104 °C.

With `Clc1ccc(Nc2nnc(Cc3ccncc3)c3ccccc23)cc1Cl`, the melting point was 249 to 250 °C.

Molecule `CC=CCN(Cc1cc(C)ccc1C)c1ncnc2c1ncn2C1OC(CO)C(O)C1O` (stereo unspecified) had a melting point of 125 to 127 °C.

`CCOC(=O)c1csnc1-c1ccc(C(F)(F)F)cc1`: the melting point fell in the range of 63 to 64 °C.

In the case of `CC(C)Nc1nc2cc(Cl)c(Cl)cc2n1[C@H]1C[C@@H](CO)[C@H](O)[C@@H]1O`, the melting point was in the range of 137 to 138 °C.

`CC(=O)Oc1ccccc1C(=O)N[C@@H]1CCCC[C@@H]1O[N+](=O)[O-]` (relative stereo) had a melting point of 143 to 145 °C.

Molecule `Clc1ccccc1-c1nn2cc(-c3ccccc3)nc2s1` displayed a melting point of 126 °C.

`CC(C)OC(=O)c1cc(-n2c(Cl)nc(C(F)(F)F)cc2=O)c(F)cc1Cl`: the melting point is 72 to 75 °C.

With `CCOC(=O)c1ccc(-c2ccc(OC)cc2)cc1`, the melting point was in the range of 103 to 104 °C.

`CCC(COc1cccc(COc2cccc3cccnc23)c1)OC(C)=O` (stereo unspecified) had a melting point of 77 to 79 °C.

`COc1cccc2c1nc(C(F)F)n2-c1nc(N2CCNCC2)nc(N2CC3CCC(C2)O3)n1` came in with a melting point of 221 to 223 °C.

In the case of `ON=C1CCCCC12OCCO2`, the melting point is 97 to 98 °C.

The molecule `CS(=O)(=O)Nc1ccc(C(=O)CC(=O)C2CC2)c(Cl)c1` yielded a melting point of 120 to 122 °C.

Molecule `CS(=O)(=O)C(CC(S(C)(=O)=O)S(C)(=O)=O)S(C)(=O)=O` displayed a melting point of 278 to 280 °C.

`Cc1csc(Cc2ccc(NC(=O)/C=C/c3cnn(C)c3-c3ccc(F)cc3)cc2)n1`: the melting point fell in the range of 217 to 218 °C.

In turn, `OC1CSC(Oc2cncc(-c3ccccc3)c2)C(O)C1O` (stereo unspecified) returned a melting point of 169 °C.

Source of the values: a melting point compilation (Tetko et al.; mined from patent text by program, amines drawn as free bases though some values may be those of a salt).
